Source: patent US4277465A, “Adjuvant for promoting absorption of therapeutically active substances through the digestive tract” (Kyoto Yakuhin Kogyo Kabushiki Kaisha, priority 1978, dated 1981)
Each block holds one compound with its values, some of them ahead of it.

How the values were obtained:
[1] = Rectal insulin suppositories (Recipes 35-41), glucose response; assay type: in vivo; conditions: rectal suppository 6 I.U. insulin, enamine derivative 0.025g (5%)
Source text: These suppositories were rectally administered to rabbits (R, 2.5-3kg) and dogs (D, 12-13kg).

[2] = Rectal suppositories of CET-Na with enamine derivative, concentration in blood; assay type: in vivo; conditions: dog
Method: These suppositories were rectally administered to dogs and the absorbabilities of the active components were investigated by measuring the blood concentrations.
(§1) The blood concentrations were measured in conformity with the biological assay method in the Antibiotic Standard of Japan. The cup method was employed with Sarcina lutea for penicillins and Bacillus subtilis for cephalosporins.

[3] = Rectal inulin dosage form with adjuvant, urinary recovery of inulin; assay type: in vivo, human; conditions: in Witepsol H-15, level of addition of enamine derivative 2%, Lunt method
Method: The following dosage forms (dispersed in Witepsol H-15®) were rectally administered to dogs and humans to measure the urinary recovery rates of inulin. […] The test was carried out by the Lunt method.

[4] = Rectal suppositories of AB-PC-Na with enamine derivative, concentration in blood; assay type: in vivo; conditions: AB-PC-Na 75mg, dog
Method: as §1, with “These suppositories were rectally administered to dogs and the absorbabilities of the active components were investigated by measuring the blood concentrations. The blood” for “The blood”

[5] = Stability in aqueous solution (half-life of enamine derivatives); assay type: physicochemical; conditions: pH 7.4 phosphate buffer, μ 0.15, 25° C., UV absorption spectrometry; "stable" = enamine structure retained even after 6 hours
Method: To examine the stability in water of the enamine derivatives (I) obtained above, some representative compounds were selected and their half-lives [t 0.5 (min.)] in pH 7.4 phosphate buffer (μ: 0.15, temp.: 25° C.) were determined by ultraviolet absorption spectrometry. In the Table, "stable" means that the enamine structure was retained even after 6 hours.

[6] = Rectal ointment of CET-Na with enamine derivative, blood concentration; assay type: in vivo, rabbit; conditions: CET; rectal ointment CET.Na 20%, enamine derivative 10%; dose 50 mg CET.Na/kg
Method: Cephalothin sodium (briefly CET-Na), a drug which is sparingly absorbed from the rectum, was selected for a test. Thus, CET-Na was dispersed in liquid paraffin-white vaseline base to prepare rectal ointment. The ointment was administered to rabbits by the rectal route. […] The blood concentration was measured in conformity with the biological assay method in the Antibiotic Standard of Japan. […]

[7] = Rectal ointment of AB-PC.Na with enamine derivative, blood concentration; assay type: in vivo, rabbit; conditions: rectal ointment AB-PC.Na 10%, enamine derivative 10%, dose 15 mg AB-PC.Na/kg
Method: (§2) AB-PC and cephalexin (briefly, CEX), both of which are sparingly absorbed from the rectum, are also tested. Thus, enamine derivatives (I) and these antibiotics were used to prepare rectal ointments in accordance with established practice. The ointments were administered to rabbits to investigate the peak blood concentrations (μg/ml) and AUC (μg.min./ml).
Dose: 15mg AB-PC . Na/kg
Compounds 3, 5, 13 and 14 were used as said enamine derivatives (I) in Recipes 4, 5, 6 and 7, respectively.

[8] = Rectal ointment of CEX.H2O with enamine derivative, blood concentration; assay type: in vivo, rabbit; conditions: rectal ointment CEX.H2O 20%, enamine derivative 10%, dose 50 mg CEX.H2O/kg
Method: as §2
Dose: 50 mg CEX . H2 O/kg

[9] = CET-Na 75mg, enamine derivative 60mg (5%), base Witepsol H-15 1065mg
[10] = enamine derivative 60mg, base SB-W 1065mg
[11] = CET-Na 75mg, enamine derivative 60mg (5%), base SB-W 1065mg
[12] = CET-Na 500mg, enamine derivative 150mg (10%), base Witepsol H-15 850mg
[13] = CET-Na 75mg, enamine derivative 120mg (10%), base Witepsol H-15 1005mg
[14] = enamine derivative 120mg (10%), base SB-W 1005mg

SMILES: CCOC(=O)C(C)OC(=O)C=C(C)N[C@@H](Cc1ccccc1)C(=O)[O-].[Na+] (stereo partly drawn) [Compound 34, N-[1-Methyl-2-(1-ethoxycarbonyl-ethoxycarbonyl)vinyl]-L-phenylalanine sodium salt]
Blood glucose response (6 I.U.) ([1]; rabbit 2.5-3kg): 45-55%
Time course: Lowest level ([1]; rabbit 2.5-3kg): 45 to 60 min
Time course: Onset ([1]; rabbit 2.5-3kg): 15 min
Time course: Return to pre-medication level ([1]; rabbit 2.5-3kg): 150 min
Concentration in blood, 15 min. [2, 9]: 1250 ng/mL
Concentration in blood, 30 min. [2, 9]: 830 ng/mL
Concentration in blood, 60 min. [2, 9]: 610 ng/mL
Concentration in blood, 120 min. [2, 9]: 390 ng/mL

SMILES: CCOC(=O)C=C(C)NCC(=O)[O-].[Na+] [Compound 1, N-(1-Methyl-2-ethoxycarbonylvinyl)glycine sodium salt]
% Urinary recovery [3]: 12%
Concentration in blood, 15 min. [4, 10]: 1230 ng/mL
Concentration in blood, 30 min. [4, 10]: 870 ng/mL
Concentration in blood, 60 min. [4, 10]: 610 ng/mL
Concentration in blood, 120 min. [4, 10]: 320 ng/mL
half-life t 0.5 [5]: 3.7 min

SMILES: CCOC(=O)C(C)OC(=O)C=C(C)NCC(=O)[O-].[Na+] (stereo not shown) [Compound 32, N-[1-Methyl-2-(1-ethoxycarbonyl-ethoxycarbonyl)vinyl]glycine sodium salt]
Blood glucose response (6 I.U.) ([1]; dog 12-13kg): 30-40%
Time course: Lowest level ([1]; dog 12-13kg): 30 to 60 min
Time course: Onset ([1]; dog 12-13kg): 30 min
Time course: Return to pre-medication level ([1]; dog 12-13kg): 120 min
Blood glucose response (6 I.U.) ([1]; rabbit 2.5-3kg): 45-55%
Time course: Lowest level ([1]; rabbit 2.5-3kg): 45 to 60 min
Time course: Onset ([1]; rabbit 2.5-3kg): 15 min
Time course: Return to pre-medication level ([1]; rabbit 2.5-3kg): 150 min
Concentration in blood, 15 min. [2, 11]: 1500 ng/mL
Concentration in blood, 30 min. [2, 11]: 1120 ng/mL
Concentration in blood, 60 min. [2, 11]: 730 ng/mL
Concentration in blood, 120 min. [2, 11]: 400 ng/mL

SMILES: CCOC(=O)C=C(C)NC(Cc1ccccc1)C(=O)[O-].[Na+] (racemic) [Compound 10, N-(1-Methyl-2-ethoxycarbonylvinyl)-DL-phenylalanine sodium salt]
Concentration in blood, 15 min. [2, 12]: 15300 ng/mL
Concentration in blood, 30 min. [2, 12]: 11730 ng/mL
Concentration in blood, 60 min. [2, 12]: 6750 ng/mL
Concentration in blood, 120 min. [2, 12]: 2200 ng/mL
half-life t 0.5 [5]: 15.7 min

SMILES: CCCCOC(=O)C1=C(N[C@@H](C(=O)[O-])c2ccccc2)CCC1.[Na+] [Compound 7, N-(2-Butoxycarbonyl-1-cyclopenten-1-yl)-D-phenylglycine sodium salt]
half-life t 0.5 [5]: Stable

SMILES: CCOC(=O)CNC(=O)C=C(C)N[C@@H](Cc1ccccc1)C(=O)[O-].[Na+] [Compound 37, N-(1-Methyl-2-ethoxycarbonylmethylcarbamoyl-vinyl)-L-phenylalanine sodium salt]
Blood glucose response (6 I.U.) ([1]; rabbit 2.5-3kg): 20-30%
Time course: Lowest level ([1]; rabbit 2.5-3kg): 30 to 60 min
Time course: Onset ([1]; rabbit 2.5-3kg): 30 min
Time course: Return to pre-medication level ([1]; rabbit 2.5-3kg): 120 min
Concentration in blood, 15 min. [2, 13]: 1500 ng/mL
Concentration in blood, 30 min. [2, 13]: 1280 ng/mL
Concentration in blood, 60 min. [2, 13]: 870 ng/mL
Concentration in blood, 120 min. [2, 13]: 440 ng/mL

SMILES: CCOC(=O)C=C(C)N[C@@H](CCC(=O)[O-])C(=O)[O-].[Na+].[Na+] [Compound 16, N-(1-Methyl-2-ethoxycarbonylvinyl)-L-glutamic acid sodium salt]
Concentration in blood, 15 min. [4, 14]: 690 ng/mL
Concentration in blood, 30 min. [4, 14]: 480 ng/mL
Concentration in blood, 60 min. [4, 14]: 520 ng/mL
Concentration in blood, 120 min. [4, 14]: 290 ng/mL
half-life t 0.5 [5]: 16.3 min

The next lines start with the values.

half-life t 0.5 [5]: 478 min
SMILES: CC(N[C@@H](C(=O)[O-])c1ccccc1)=C1CCOC1=O.[Na+] [Compound 6, N-[1-(Tetrahydro-2-furanone-3-ylidene)ethyl]-D-phenylglycine sodium salt]

AUC [6]: 306 µg·min/mL
Peak blood concentration [6]: 6.1 µg/mL
AUC [7]: 149 µg·min/mL
Peak blood concentration [7]: 4.7 µg/mL
half-life t 0.5 [5]: Stable
SMILES: CCOC(=O)C(=CN[C@@H](C(=O)[O-])c1ccccc1)C(=O)OCC.[Na+] [Compound 5, N-[2,2-bis(ethoxycarbonyl)vinyl]-D-phenylglycine sodium salt]

AUC [6]: 315 µg·min/mL
Peak blood concentration [6]: 6.3 µg/mL
AUC [8]: 278 µg·min/mL
Peak blood concentration [8]: 6.7 µg/mL
half-life t 0.5 [5]: 18.8 min
SMILES: CCOC(=O)C=C(C)NCCCC(=O)[O-].[Na+] [Compound 2, N-(1-Methyl-2-ethoxycarbonylvinyl)-γ-aminobutyric acid sodium salt]

AUC [6]: 396 µg·min/mL
Peak blood concentration [6]: 8.7 µg/mL
half-life t 0.5 [5]: 22.9 min
SMILES: CCOC(=O)C=C(C)NCCCC[C@H](NC(C)=CC(=O)OCC)C(=O)[O-].[Na+] [Compound 17, N,N'-Bis(1-methyl-2-ethoxycarbonylvinyl)-L-lysine sodium salt]

AUC [6]: 25 µg·min/mL
Peak blood concentration [6]: 2.5 µg/mL
AUC [8]: 733 µg·min/mL
Peak blood concentration [8]: 6.5 µg/mL
AUC [7]: 108 µg·min/mL
Peak blood concentration [7]: 2.6 µg/mL
half-life t 0.5 [5]: 3.1 min
SMILES: CCOC(=O)C=C(C)N1CCC[C@H]1C(=O)[O-].[Na+] [Compound 13, N-(1-Methyl-2-ethoxycarbonylvinyl)-L-proline sodium salt]

AUC [6]: 250 µg·min/mL
Peak blood concentration [6]: 7.8 µg/mL
AUC [7]: 239 µg·min/mL
Peak blood concentration [7]: 5.9 µg/mL
half-life t 0.5 [5]: 24.0 min
SMILES: CCOC(=O)C=C(C)NCCS(=O)(=O)[O-].[Na+] [Compound 14, N-(1-Methyl-2-ethoxycarbonylvinyl)taurine sodium salt]

AUC [6]: 49 µg·min/mL
Peak blood concentration [6]: 3.8 µg/mL
SMILES: CCOC(=O)C=C(C)N[C@@H](C(=O)OC)c1ccccc1 [Compound 8, Methyl-N-(1-methyl-2-ethoxycarbonylvinyl)-D-phenylglycinate]

AUC [6]: 568 µg·min/mL
Peak blood concentration [6]: 11.0 µg/mL
half-life t 0.5 [5]: Stable
SMILES: CC(=O)C=C(C)N[C@@H](C(=O)[O-])c1ccccc1.[Na+] [Compound 4, N-(1-Methyl-2-acetylvinyl)-D-phenylglycine sodium salt]

AUC [6]: 102 µg·min/mL
Peak blood concentration [6]: 1.8 µg/mL
half-life t 0.5 [5]: 31.8 min
SMILES: CCOC(=O)C=C(C)NCC(=O)NCC(=O)[O-].[Na+] [Compound 15, N-(1-Methyl-2-ethoxycarbonylvinyl)glycylglycine sodium salt]
